Measurements reported in ChEMBL document CHEMBL1201862, “PubChem BioAssay data set” (2004).
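Interpolation was linear, between the two tested concentrations surrounding the appropriate level; five concentrations were tested over 48 hours in 96-well plates. GI50: concentration for 50% inhibition of growth.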 The source made the active and inactive calls. Cut-off read from the data, not from the text of the source: active = GI50 up to about 1.1 µM and inactive = higher.

Columns and labels:
Test in all cases: DTP human tumour cell line panel, 48 h
[1] = system: MCF7
[2] = system: SF-268
[3] = system: PC-3
[4] = system: Malme-3M
[5] = system: SW-620
[6] = system: U-251
[7] = system: BT-549
[8] = system: EKVX
[9] = system: UACC-62
[10] = system: MDA-MB-231
[11] = system: HT-29
[12] = system: NCI-H460
[13] = system: OVCAR-4
[14] = system: HOP-62
[15] = system: COLO 205
[16] = system: ACHN
[17] = system: HCT-116
[18] = system: HL-60
[19] = system: CCRF-CEM

| Compound | GI50 [1] | GI50 [2] | GI50 [3] | GI50 [4] | GI50 [5] | GI50 [6] | GI50 [7] | GI50 [8] | GI50 [9] | GI50 [10] | GI50 [11] | GI50 [12] | GI50 [13] | GI50 [14] | GI50 [15] | GI50 [16] | GI50 [17] | GI50 [18] | GI50 [19] |
| --- | --- | --- | --- | --- | --- | --- | --- | --- | --- | --- | --- | --- | --- | --- | --- | --- | --- | --- | --- |
| Cc1nc([N+](=O)[O-])cn1-c1nc2ccccn2c1[N+](=O)[O-] | 95.3 µM (inactive) | > 100 µM (inactive) | 38.4 µM (inactive) | 43.8 µM (inactive) | > 100 µM (inactive) | 53.2 µM (inactive) | > 100 µM (inactive) | 63.7 µM (inactive) | > 100 µM (inactive) | 56.4 µM (inactive) | 64.9 µM (inactive) | 45.1 µM (inactive) | > 100 µM (inactive) | 55.1 µM (inactive) | 90.4 µM (inactive) | > 100 µM (inactive) | 74.3 µM (inactive) |  |  |
| COC(=O)n1c(=O)n(-c2ccccc2)c(=O)n1C(=O)Nc1ccccc1 |  | > 100 µM (inactive) | > 100 µM (inactive) | > 100 µM (inactive) | > 100 µM (inactive) | > 100 µM (inactive) | > 100 µM (inactive) | > 100 µM (inactive) | > 100 µM (inactive) | > 100 µM (inactive) | > 100 µM (inactive) | > 100 µM (inactive) | 3.42 µM (inactive) | > 100 µM (inactive) | > 100 µM (inactive) | > 100 µM (inactive) | > 100 µM (inactive) | > 100 µM (inactive) | 96.2 µM (inactive) |
| CN(C)c1ccc(/C=C2\Oc3cc(O)ccc3C2=O)cc1 | 80.9 µM (inactive) | > 100 µM (inactive) | > 100 µM (inactive) |  | 48.9 µM (inactive) | 57 µM (inactive) | 65.8 µM (inactive) | > 100 µM (inactive) | > 100 µM (inactive) | 53.1 µM (inactive) |  | 80.5 µM (inactive) | > 100 µM (inactive) | > 100 µM (inactive) | > 100 µM (inactive) | > 100 µM (inactive) | > 100 µM (inactive) | 40.5 µM (inactive) | 69.5 µM (inactive) |
| O=C(O)c1nc2ccccc2nc1NCc1ccc(F)cc1 | 86.5 µM (inactive) | 57 µM (inactive) | > 100 µM (inactive) |  | 63.8 µM (inactive) | 52.7 µM (inactive) | > 100 µM (inactive) | 45.8 µM (inactive) | > 100 µM (inactive) | 68.7 µM (inactive) | 69.5 µM (inactive) | 60.7 µM (inactive) |  | > 100 µM (inactive) | 31.9 µM (inactive) |  | 41.6 µM (inactive) | 45.8 µM (inactive) | 50.5 µM (inactive) |
| c1ccc(/C(=N/Nc2nc3ccccc3s2)C2CCCCC2)nc1 | 1.23 µM (inactive) | 10.6 µM (inactive) | 6.11 µM (inactive) | 4.13 µM (inactive) | 5.21 µM (inactive) | 11.3 µM (inactive) | 18.6 µM (inactive) | 11.9 µM (inactive) | 12.8 µM (inactive) | 11.3 µM (inactive) | 0.569 µM (active) | 7.83 µM (inactive) | 9.79 µM (inactive) | 9.46 µM (inactive) | 1.57 µM (inactive) | 6.58 µM (inactive) | 0.296 µM (active) |  | 1.98 µM (inactive) |
| NNC(=O)c1cc(Cl)ccc1NC(=O)C12CC3CC(CC(C3)C1)C2 | 27.2 µM (inactive) | 20.2 µM (inactive) | 35.3 µM (inactive) | 23.6 µM (inactive) | 39.6 µM (inactive) | 31.4 µM (inactive) | 37.4 µM (inactive) |  | 24.1 µM (inactive) | 51.2 µM (inactive) | 20.2 µM (inactive) | 30.9 µM (inactive) | 21.8 µM (inactive) | 45.6 µM (inactive) | 33.6 µM (inactive) | 23.6 µM (inactive) | 25.2 µM (inactive) | 23 µM (inactive) |  |
| CCOC(=O)c1nnsc1NC(=O)NCCCCCCn1c(=O)n(CCCCCCNC(=O)Nc2snnc2C(=O)OCC)c(=O)n(CCCCCCNC(=O)Nc2snnc2C(=O)OCC)c1=O | 97.3 µM (inactive) | 19.8 µM (inactive) | 50.9 µM (inactive) | 25.1 µM (inactive) | 67.6 µM (inactive) | 19.3 µM (inactive) | 33 µM (inactive) | 60.4 µM (inactive) | 17.3 µM (inactive) | 15.2 µM (inactive) | > 100 µM (inactive) | 21.5 µM (inactive) | 80 µM (inactive) | 25.4 µM (inactive) | > 100 µM (inactive) | 47 µM (inactive) | 38.8 µM (inactive) |  | 38.5 µM (inactive) |
| COC(=O)C1=C(OC(=O)/C(=C/c2c(F)cccc2F)c2ccccc2)C(C(=O)OC)[C@@]2(O)[C@@H](C(=O)OC)[C@H](C)C[C@@H]1[C@@H]2C(=O)OC (stereo not given in full) |  | > 100 µM (inactive) | > 100 µM (inactive) | 68.5 µM (inactive) | > 100 µM (inactive) | > 100 µM (inactive) | > 100 µM (inactive) | > 100 µM (inactive) | > 100 µM (inactive) | > 100 µM (inactive) | > 100 µM (inactive) | > 100 µM (inactive) | > 100 µM (inactive) | > 100 µM (inactive) | > 100 µM (inactive) | > 100 µM (inactive) | > 100 µM (inactive) | > 100 µM (inactive) | > 100 µM (inactive) |
| O=c1[nH]c(=O)n(C2COC(CO)C2O)cc1F (stereo not given) | 8.41 µM (inactive) | 64.3 µM (inactive) | 36.1 µM (inactive) | 9.29 µM (inactive) | 55.3 µM (inactive) | 72.9 µM (inactive) | 32.7 µM (inactive) | 89.9 µM (inactive) | 22.1 µM (inactive) | > 100 µM (inactive) | 39 µM (inactive) | 4.98 µM (inactive) | > 100 µM (inactive) | 17.7 µM (inactive) | 25.1 µM (inactive) | 38.5 µM (inactive) | 9.98 µM (inactive) |  | 74.8 µM (inactive) |
| O=[N+]([O-])/C(C(Cl)=C(Cl)Cl)=C(\N1CCCCC1)n1nnc2ccccc21 | 25.4 µM (inactive) | 20.8 µM (inactive) | 17.6 µM (inactive) | 21.6 µM (inactive) | 19.1 µM (inactive) | 16.9 µM (inactive) | 23.3 µM (inactive) | 8.47 µM (inactive) | 18.6 µM (inactive) | 17.3 µM (inactive) | 19.5 µM (inactive) | 22.4 µM (inactive) | 47.1 µM (inactive) | 22.2 µM (inactive) | 17.8 µM (inactive) | 19.7 µM (inactive) | 18.9 µM (inactive) |  |  |
| NCCCCN(CCCN)C(=O)OCc1ccccc1 | > 100 µM (inactive) | > 100 µM (inactive) | > 100 µM (inactive) |  | > 100 µM (inactive) | > 100 µM (inactive) | > 100 µM (inactive) | > 100 µM (inactive) | > 100 µM (inactive) | > 100 µM (inactive) | > 100 µM (inactive) | > 100 µM (inactive) | > 100 µM (inactive) | > 100 µM (inactive) | > 100 µM (inactive) | > 100 µM (inactive) | > 100 µM (inactive) | > 100 µM (inactive) | > 100 µM (inactive) |
| CC1(O)C(=O)OC2CC([C@]3(O)CCC4[C@@H]5C[C@H]6O[C@]67[C@@H](O)C=CC(=O)[C@]7(C)C5CC[C@@]43C)C1(C)C2 (stereo not given in full) |  | 16 µM (inactive) | 20.1 µM (inactive) | 3.76 µM (inactive) | 3.07 µM (inactive) | 23.5 µM (inactive) | 6.68 µM (inactive) | 45 µM (inactive) | 14.9 µM (inactive) | 16.7 µM (inactive) | 17.1 µM (inactive) | 30.5 µM (inactive) | 12.1 µM (inactive) | 52.7 µM (inactive) | 6.93 µM (inactive) | 18.8 µM (inactive) | 10.9 µM (inactive) | 3.52 µM (inactive) | 2.03 µM (inactive) |
| Nc1ccc(S(=O)(=O)NCc2nccs2)cc1 | 23.4 µM (inactive) | 18.6 µM (inactive) | 30.1 µM (inactive) |  | 30.5 µM (inactive) | 21.8 µM (inactive) | 20.1 µM (inactive) | 17.3 µM (inactive) | 17.5 µM (inactive) | 24.9 µM (inactive) | 16.7 µM (inactive) | 26.5 µM (inactive) | 29.3 µM (inactive) | 36.8 µM (inactive) | 18.4 µM (inactive) | 23.4 µM (inactive) | 19 µM (inactive) | 20.4 µM (inactive) | 18.2 µM (inactive) |
| C/C=C/C=C/c1nc(C#N)c(N)o1 | > 100 µM (inactive) | > 100 µM (inactive) | 36.6 µM (inactive) | > 100 µM (inactive) | > 100 µM (inactive) | > 100 µM (inactive) | > 100 µM (inactive) | > 100 µM (inactive) | > 100 µM (inactive) | > 100 µM (inactive) | > 100 µM (inactive) |  | > 100 µM (inactive) | > 100 µM (inactive) | > 100 µM (inactive) | > 100 µM (inactive) | > 100 µM (inactive) |  | 7.08 µM (inactive) |
| CCCCCCCCCOC(=O)c1cnc(Cl)cn1 | 25 µM (inactive) | 21.2 µM (inactive) | 6.18 µM (inactive) | 19.6 µM (inactive) | 17.3 µM (inactive) | 19.7 µM (inactive) | 26.5 µM (inactive) | 22.3 µM (inactive) | 18.1 µM (inactive) | 18.5 µM (inactive) | 29 µM (inactive) | 20.8 µM (inactive) | 27.9 µM (inactive) | 24 µM (inactive) | 22.2 µM (inactive) | 19.4 µM (inactive) | 17.7 µM (inactive) |  | 39.9 µM (inactive) |
| Nc1ccn([C@H]2CO[C@@H](CO)[C@@H]2O)c(=O)n1 | > 100 µM (inactive) | > 100 µM (inactive) | > 100 µM (inactive) |  | > 100 µM (inactive) | > 100 µM (inactive) | > 100 µM (inactive) | > 100 µM (inactive) | > 100 µM (inactive) | > 100 µM (inactive) | > 100 µM (inactive) | > 100 µM (inactive) | > 100 µM (inactive) | > 100 µM (inactive) | > 100 µM (inactive) | > 100 µM (inactive) | > 100 µM (inactive) |  | > 100 µM (inactive) |
